Data set [1] deals with Enterococcus faecalis. Put plainly: Additive antibacterial activity against multidrug resistant Enterococcus faecalis ATCC 51299 assessed as fractional inhibitory concentration in presence of lincomycin hydrochloride. The data set is classed as functional.
Data set [2] relates to Enterococcus faecalis. Put plainly: Antibacterial activity against multidrug resistant Enterococcus faecalis ATCC 51299 infected in cyclophosphamide immunosuppressed mouse model of abdominal infection assessed as reduction in cell swelling at 1.25 to 5 mg/kg measured after 60 hrs by H and E staining based analysis. The data set is classed as functional, organism-based. Particulars: dose 1.25-5 mg/kg.

The subject of data set [3] is Enterococcus faecalis. Description: Antibacterial activity against multidrug resistant Enterococcus faecalis ATCC 51299 infected in cyclophosphamide immunosuppressed mouse model of abdominal infection assessed as reduction in abscess at 1.25 to 5 mg/kg measured after 60 hrs by H and E staining based analysis. The data set is classed as functional, organism-based. Particulars: dose 1.25-5 mg/kg.

For data set [4], the system named is Enterococcus faecalis. Description: Antibacterial activity against multidrug resistant Enterococcus faecalis ATCC 51299 at 2 to 4 times MIC measured after 8 to 12 hrs by time-kill assay. Particulars: time 8-12 hrs. It is filed as functional, organism-based.
Data set [5] relates to Staphylococcus aureus. Description: Additive antibacterial activity against methicillin resistant Staphylococcus aureus clinical isolate 003 assessed as fractional inhibitory concentration in presence of adriamycin hydrochloride. The data set is classed as functional.
Data set [6] is described as follows: Toxicity in Galleria mellonella assessed as survival rate at 1.25 to 10 mg/kg observed after 7 days. It is filed as organism-based. The note with it: in vivo, dose 1.25-10 mg/kg, time 7 day.
The subject of data set [7] is Enterococcus faecalis. Put plainly: Antibacterial activity against multidrug resistant Enterococcus faecalis ATCC 51299 in presence of 4.5 mM/L K+ (reference value: 1 ug/ml). It is filed as functional.
In data set [8] the test system is Staphylococcus aureus. Description: Additive antibacterial activity against methicillin resistant Staphylococcus aureus clinical isolate 003 assessed as fractional inhibitory concentration in presence of ampicillin. It is filed as functional.
In data set [9] the test system is Enterococcus faecalis. Description: Antibiofilm activity in multidrug resistant Enterococcus faecalis ATCC 51299 assessed as biofilm clearance rate at 4 times MIC by crystal violet staining based analysis relative to control. It is filed as functional.
Data set [10] relates to Enterococcus faecalis. Description: Antibacterial activity against multidrug resistant Enterococcus faecalis ATCC 51299 infected in cyclophosphamide immunosuppressed mouse model of abdominal infection assessed as eradication of bacterial colonies in liver at 1.25 to 5 mg/kg measured after 60 hrs relative to control. The note with it: dose 1.25-5 mg/kg. The data set is classed as functional.

For data set [11], the system named is Enterococcus faecalis. Description: Antibacterial activity against multidrug resistant Enterococcus faecalis ATCC 51299 in presence of 2.5 mM/L Ca+ (reference value: 1 ug/ml). It is filed as functional.
For data set [12], the system named is Enterococcus faecalis. Description: Antibacterial activity against multidrug resistant Enterococcus faecalis ATCC 51299 in presence of phosphatidylethanolamine. It is filed as functional, organism-based.
Data set [13] has as its system Enterococcus faecalis. Description: Antibacterial activity against multidrug resistant Enterococcus faecalis ATCC 51299 in presence of phosphatidylglycerol. The data set is classed as functional, organism-based.
Data set [14] deals with Cell membrane. Description: Disruption of membrane permeability in methicillin resistant Staphylococcus aureus clinical isolate 003 assessed as nucleic acid leakage at 2 to 4 times MIC.
Data set [15] relates to Staphylococcus aureus. Put plainly: Additive antibacterial activity against methicillin resistant Staphylococcus aureus clinical isolate 003 assessed as fractional inhibitory concentration in presence of vancomycin. The data set is classed as functional.
Data set [16] concerns Staphylococcus aureus. Put plainly: Antibacterial activity against methicillin resistant Staphylococcus aureus clinical isolate 003 infected in cyclophosphamide immunosuppressed mouse model of skin wound infection assessed as reduction in inflammatory cells in skin at 1.25 to 5 mg/kg administered for 7 days and measured on day 8 by H and E staining based analysis. The data set is classed as functional, organism-based. The note with it: dose 1.25-5 mg/kg, time 8.0 day.

For data set [17], the system named is Staphylococcus aureus. Put plainly: Antibiofilm activity in methicillin resistant Staphylococcus aureus clinical isolate 003 assessed as biofilm clearance rate at 4 times MIC by crystal violet staining based analysis relative to control. The data set is classed as functional.
Data set [18] concerns Enterococcus faecalis. Put plainly: Synergistic antibacterial activity against multidrug resistant Enterococcus faecalis ATCC 51299 assessed as fractional inhibitory concentration in presence of azithromycin. It is filed as functional.
The test system of data set [19] is Staphylococcus aureus. Put plainly: Antibiofilm activity in methicillin resistant Staphylococcus aureus clinical isolate 003 assessed as destruction of biofilm integrity at 0.5 to 4 times MIC measured after 24 hrs by inverted fluorescence microscopic analysis. The data set is classed as functional, organism-based.
Data set [20] has as its system Enterococcus faecalis. Description: Additive antibacterial activity against multidrug resistant Enterococcus faecalis ATCC 51299 assessed as fractional inhibitory concentration in presence of streptomycin. It is filed as functional.
Data set [21] relates to Staphylococcus aureus. Put plainly: Synergistic antibacterial activity against methicillin resistant Staphylococcus aureus clinical isolate 003 assessed as fractional inhibitory concentration in presence of streptomycin. It is filed as functional.
Data set [22] has as its system Enterococcus faecalis. Put plainly: Additive antibacterial activity against multidrug resistant Enterococcus faecalis ATCC 51299 assessed as fractional inhibitory concentration in presence of chloramphenicol. The data set is classed as functional.
The subject of data set [23] is Enterococcus faecalis. Description: Additive antibacterial activity against multidrug resistant Enterococcus faecalis ATCC 51299 assessed as fractional inhibitory concentration in presence of norfloxacin. It is filed as functional.
Data set [24] has as its system Enterococcus faecalis. Description: Antibacterial activity against multidrug resistant Enterococcus faecalis ATCC 51299 in presence of 1 mM/L Mg2+ (reference value: 1 ug/ml). The data set is classed as functional.
Data set [25] relates to Staphylococcus aureus. Put plainly: Antibacterial activity in methicillin resistant Staphylococcus aureus clinical isolate 003 at sub-MIC measured after 20 passages. The data set is classed as functional, organism-based.
The test system of data set [26] is Enterococcus faecalis. Put plainly: Antibacterial activity against multidrug resistant Enterococcus faecalis ATCC 51299 in presence of 140 mM/L Na+ (reference value: 1 ug/ml). It is filed as functional.
The subject of data set [27] is Staphylococcus aureus. Put plainly: Antibacterial activity against methicillin resistant Staphylococcus aureus clinical isolate 003 in presence of 140 mM/L Na+ (reference value: 0.25 ug/ml). The data set is classed as functional.
The test system of data set [28] is Enterococcus faecalis. Put plainly: Antibacterial activity against multidrug resistant Enterococcus faecalis ATCC 51299 infected in cyclophosphamide immunosuppressed mouse model of abdominal infection assessed as eradication of bacterial colonies in kidney at 1.25 to 5 mg/kg measured after 60 hrs relative to control. It is filed as functional. Particulars: dose 1.25-5 mg/kg.

Data set [29] has as its system Enterococcus faecalis. Put plainly: Antibacterial activity in multidrug resistant Enterococcus faecalis ATCC 51299 at sub-MIC measured after 20 passages. It is filed as functional, organism-based.
The test system of data set [30] is Enterococcus faecalis. Put plainly: Antibiofilm activity in multidrug resistant Enterococcus faecalis ATCC 51299 assessed as reduction in biofilm density at 0.5 to 4 times MIC measured after 24 hrs by inverted fluorescence microscopic analysis. It is filed as functional, organism-based.
The subject of data set [31] is Enterococcus faecalis. Put plainly: Antibacterial activity against multidrug resistant Enterococcus faecalis ATCC 51299 infected in cyclophosphamide immunosuppressed mouse model of abdominal infection assessed as eradication of bacterial colonies in spleen at 1.25 to 5 mg/kg measured after 60 hrs relative to control. The data set is classed as functional. The note with it: dose 1.25-5 mg/kg.

In data set [32] the test system is Staphylococcus aureus. Description: Antibacterial activity against methicillin resistant Staphylococcus aureus clinical isolate 003 in presence of 2.5 mM/L Ca2+ (reference value: 0.25 ug/ml). It is filed as functional.
For data set [33], the system named is Staphylococcus aureus. Put plainly: Antibacterial activity against methicillin resistant Staphylococcus aureus clinical isolate 003 infected in cyclophosphamide immunosuppressed mouse model of skin wound infection assessed as wound healing at 1.25 to 5 mg/kg administered for 7 days and measured on day 8. Particulars: dose 1.25-5 mg/kg, time 8.0 day. It is filed as functional, organism-based.

For data set [34], the system named is Enterococcus faecalis. Description: Antibacterial activity against multidrug resistant Enterococcus faecalis ATCC 51299 in presence of 140 mM/L Na+ (reference value: 32 ug/ml). The data set is classed as functional.
Data set [35] concerns Enterococcus faecalis. Put plainly: Antibacterial activity against multidrug resistant Enterococcus faecalis ATCC 51299 in presence of 1 mM/L Mg2+ (reference value: 32 ug/ml). It is filed as functional.
Data set [36] concerns Enterococcus faecalis. Put plainly: Antibacterial activity against multidrug resistant Enterococcus faecalis ATCC 51299 in presence of 4.5 mM/L K+ (reference value: 32 ug/ml). It is filed as functional.
For data set [37], the system named is Staphylococcus aureus. Description: Antibacterial activity against methicillin resistant Staphylococcus aureus clinical isolate 003 in presence of 1 mM/L Mg2+ (reference value: 0.5 ug/ml). The data set is classed as functional.

These results are taken from ChEMBL document CHEMBL5512659, “Structure optimizing of flavonoids against both MRSA and VRE” (Eur J Med Chem, 2024).

The source made the active and inactive calls. The calls are words filed in the database; no cut-off is given here.

With `CCCCCCc1c(-c2ccc(OCCCCNCCCN)cc2OCCCCNCCCN)oc2cc(OC)cc(O)c2c1=O`, the “fractional inhibitory concentration index (FICI)” value is 1 in data set [1]; 0.75 in data set [5]; 0.75 in data set [8]; 1 in data set [15]; 0.313 in data set [18]; 0.75 in data set [20]. Moreover, the “fractional inhibitory concentration index (FICI)” value in [21] was found to be 0.375; in data set [22], 0.75; in data set [23], 1. In addition, the result in data set [2], in [3], in data set [4], in data set [14], in data set [16] and in data set [25] was Active. Besides, the result in [29] and in data set [33] was Active. In addition, the survival at 168 h in data set [6] was 100%. The MIC is 1 µg/mL in data set [7]; 1 µg/mL in [11]; 1 µg/mL in data set [24]; 1 µg/mL in data set [26]; 0.25 µg/mL in data set [27]; 0.25 µg/mL in [32]. Also, the Activity in [9] was about 80%; in [10] it was 97%; in data set [17], about 80%; in data set [19], “Dose-Dependent Effect”; in data set [28], 99.2%; in data set [30] it was “Dose-Dependent Effect”. The Activity in [31] turned out to be 95.5%. Further, the outcome in data set [12] and in data set [13] was inactive.

`CCCCCCc1c(-c2ccc(OCC(=O)CN[C@H](CCCNC(=N)N)C(=O)OC)cc2OCC(=O)CN[C@H](CCCNC(=N)N)C(=O)OC)oc2cc(OC)cc(O)c2c1=O`: the minimum inhibitory concentration (MIC) in data set [34], in data set [35] and in [36] was 32 µg/mL throughout. Also, the result in data set [4], in data set [14], in data set [25] and in data set [29] was Active. The Activity in [9] is about 80%; in [17] it was about 80%; in [19] it was “Dose-Dependent Effect”; in data set [30] it was “Dose-Dependent Effect”. Besides, the outcome in [12] and in data set [13] was inactive.

For `CCCCCCc1c(-c2ccc(OCCCCN(C)C)cc2OCCCCN(C)C)oc2cc(OC)cc(O)c2c1=O`, the outcome in data set [4], in [14], in [25] and in data set [29] was Active. For the same compound, the minimal inhibitory concentration (MIC) is 1 µg/mL in data set [7]; 1 µg/mL in [11]; 0.5 µg/mL in data set [37]; 1 µg/mL in data set [24]; 1 µg/mL in data set [26]. The Activity in data set [9] was about 80%; in [17], about 80%; in [19] it was “Dose-Dependent Effect”; in data set [30], “Dose-Dependent Effect”. The outcome in data set [12] and in [13] was inactive.

For orientation: MIC means the lowest concentration found to suppress growth.
